Results as given in ChEMBL document CHEMBL1201862, “PubChem BioAssay data set” (2004).
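Method: 48-hour compound exposure of cells in 96-well plates, five concentrations, linear interpolation of endpoints. The concentration for 50% growth inhibition is given as GI50.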 The source made the active and inactive calls. Rule as the data show it: active = GI50 up to about 1.1 µM and inactive = higher.

How the values were obtained:
Assay in all cases: inhibition of tumour cell growth, NCI panel, 48 h
SK-OV-3 = system: SK-OV-3
HT-29 = system: HT-29
DU-145 = system: DU-145
SK-MEL-28 = system: SK-MEL-28
MDA-N = system: MDA-N
MOLT-4 = system: MOLT-4
NCI-H460 = system: NCI-H460
OVCAR-5 = system: OVCAR-5
SN12C = system: SN12C
UACC-257 = system: UACC-257
HOP-92 = system: HOP-92
HCT-116 = system: HCT-116
SK-MEL-2 = system: SK-MEL-2
SF-268 = system: SF-268
K562 = system: K562
RPMI-8226 = system: RPMI-8226
M14 = system: M14
MDA-MB-231 = system: MDA-MB-231
SW-620 = system: SW-620
T47D = system: T47D

Structure (SMILES)	GI50 (SK-OV-3)	GI50 (HT-29)	GI50 (DU-145)	GI50 (SK-MEL-28)	GI50 (MDA-N)	GI50 (MOLT-4)	GI50 (NCI-H460)	GI50 (OVCAR-5)	GI50 (SN12C)	GI50 (UACC-257)	GI50 (HOP-92)	GI50 (HCT-116)	GI50 (SK-MEL-2)	GI50 (SF-268)	GI50 (K562)	GI50 (RPMI-8226)	GI50 (M14)	GI50 (MDA-MB-231)	GI50 (SW-620)	GI50 (T47D)
Oc1ccc(/C=C/c2cccc(/C=C/c3ccc(O)c(O)c3)n2)cc1O	16.1 µM (inactive)	10.8 µM (inactive)	3.77 µM (inactive)	14.2 µM (inactive)	7.53 µM (inactive)	3.27 µM (inactive)	5.57 µM (inactive)	9.95 µM (inactive)	8.87 µM (inactive)	13.9 µM (inactive)	11.2 µM (inactive)	5.98 µM (inactive)	11.7 µM (inactive)	10.7 µM (inactive)	3.86 µM (inactive)	3.76 µM (inactive)	5.58 µM (inactive)	25.5 µM (inactive)	7.05 µM (inactive)	3.4 µM (inactive)
CC(=O)/C=C1\Nc2ccccc2N\C1=C/C(C)=O	30.6 µM (inactive)	20.1 µM (inactive)	30 µM (inactive)	41.7 µM (inactive)	29.9 µM (inactive)	14.5 µM (inactive)	16.5 µM (inactive)	28.8 µM (inactive)	25.7 µM (inactive)	20.3 µM (inactive)	24.4 µM (inactive)	16.9 µM (inactive)	20.6 µM (inactive)	23.5 µM (inactive)	26.6 µM (inactive)	19.5 µM (inactive)	21.6 µM (inactive)	22 µM (inactive)	35.7 µM (inactive)	19.5 µM (inactive)
O=C1CC(c2ccccc2Cl)C2(C(=O)NC(=O)NC2=O)C(c2ccccc2Cl)C1 (stereo not given)	0.356 µM (active)	> 100 µM (inactive)	39.2 µM (inactive)	> 100 µM (inactive)	78 µM (inactive)	> 100 µM (inactive)	98.4 µM (inactive)	> 100 µM (inactive)	> 100 µM (inactive)	> 100 µM (inactive)	> 100 µM (inactive)	> 100 µM (inactive)	81.1 µM (inactive)	39.4 µM (inactive)	> 100 µM (inactive)	68.2 µM (inactive)	> 100 µM (inactive)	> 100 µM (inactive)	> 100 µM (inactive)	18.8 µM (inactive)
NCCC(=O)NC(Cc1c[nH]cn1)C(=O)O (stereo not given)		> 100 µM (inactive)	> 100 µM (inactive)	> 100 µM (inactive)	> 100 µM (inactive)	> 100 µM (inactive)	> 100 µM (inactive)	> 100 µM (inactive)	> 100 µM (inactive)	> 100 µM (inactive)	> 100 µM (inactive)	> 100 µM (inactive)	> 100 µM (inactive)	> 100 µM (inactive)	> 100 µM (inactive)	> 100 µM (inactive)	> 100 µM (inactive)	> 100 µM (inactive)	> 100 µM (inactive)	> 100 µM (inactive)
CC(C)N(Cc1ccccc1)S(=O)(=O)c1nc(C(C)(C)C)n[nH]1	> 100 µM (inactive)	> 100 µM (inactive)	> 100 µM (inactive)	> 100 µM (inactive)	> 100 µM (inactive)		> 100 µM (inactive)	> 100 µM (inactive)	> 100 µM (inactive)	44.9 µM (inactive)	> 100 µM (inactive)	> 100 µM (inactive)	> 100 µM (inactive)	> 100 µM (inactive)	> 100 µM (inactive)	> 100 µM (inactive)	> 100 µM (inactive)	> 100 µM (inactive)	> 100 µM (inactive)	92 µM (inactive)
Oc1ccc(/C=C/c2cc(O)cc(O)c2)cc1 [RESVERATROL]	79.3 µM (inactive)	24.3 µM (inactive)	12.1 µM (inactive)	> 100 µM (inactive)	50.7 µM (inactive)	7.23 µM (inactive)	42.1 µM (inactive)	> 100 µM (inactive)	42.8 µM (inactive)	> 100 µM (inactive)	> 100 µM (inactive)		86.3 µM (inactive)	> 100 µM (inactive)		8.63 µM (inactive)	49.8 µM (inactive)	> 100 µM (inactive)	> 100 µM (inactive)	8.65 µM (inactive)
O=C(O)CSc1ccc(N=C=S)cc1	> 100 µM (inactive)	> 100 µM (inactive)	75.2 µM (inactive)	34.8 µM (inactive)	54.1 µM (inactive)	20.4 µM (inactive)	56.9 µM (inactive)	> 100 µM (inactive)	39.3 µM (inactive)	29.5 µM (inactive)	> 100 µM (inactive)	64.3 µM (inactive)	73.3 µM (inactive)	71.6 µM (inactive)		20.8 µM (inactive)	86.1 µM (inactive)	84.1 µM (inactive)	> 100 µM (inactive)	72.4 µM (inactive)
